Test [1] in a line: Inhibition of microtubule depolymerization in rat A10 cells after 18 hrs by immunofluorescence assay. Format: cell-based.
A short description of test [2]: Antiproliferative activity against human MDA-MB-435 cells by SRB assay. In general terms: The SRB assay estimates cell density from bound dye.
Test [3] relates to A10. The test can be described thus: Inhibition of microtubule depolymerization in rat A10 cells at 75 uM after 18 hrs by immunofluorescence assay. Format: cell-based.

We go through 17 compounds from ChEMBL document CHEMBL3132861 (Medchemcomm, 2013).

Molecules are shown by their SMILES.

Turning to `CCOC(=O)c1[nH]c(Br)c(-c2ccc(Cl)c(Cl)c2)c1Br`, in test [1], the EC50 turned out to be 9.9 µM and the pEC50 was 5.

For the compound `CCOC(=O)c1[nH]c(Br)c(-c2ccc(Cl)cc2)c1Br`, in test [1], the EC50 was more than 75 µM and the pEC50 was determined as 3.82.

As for `CCOC(=O)c1[nH]c(Br)c(-c2ccc3c(c2)OCCO3)c1Br`, in test [1], the EC50 turned out to be 20.9 µM and the negative-log EC50 (pEC50) is on record as 4.68. Moreover, the IC50 in test [2] worked out at 4.36 µM.

For `CCOC(=O)c1[nH]c(Br)c(-c2ccc(OC)cc2)c1Br`, in test [1], the EC50 stood at 7 µM and the pEC50 was determined as 5.15.

In test [1], `CCOC(=O)c1[nH]c(Br)c(-c2cc(OC)c(OC)cc2Br)c1Br` registered an EC50 of 14 µM and a pEC50 of 4.85. The compound also registered an IC50 in test [2] of 2.64 µM.

In test [1], `CCOC(=O)c1[nH]c(Br)c(-c2ccc(C)cc2)c1Br` registered an EC50 of more than 75 µM and a pEC50 of 3.82. Moreover, the midpoint of inhibition in test [2], the IC50, lay at 2.24 µM.

Turning to `CCOC(=O)c1[nH]c(Br)c(-c2ccc3cc(OCC)ccc3c2)c1Br`, in test [1], the EC50 was more than 75 µM and the pEC50 amounted to 3.82. Besides, the IC50 in test [2] came to 1.99 µM.

In test [1], `CCOC(=O)c1[nH]c(Br)c(-c2cccc(OC)c2)c1Br` showed an EC50 of 2.4 µM and a pEC50 of 5.62.

In test [1], `CCOC(=O)c1[nH]c(Br)c(-c2ccc(SC)cc2)c1Br` showed an EC50 of 18.5 µM and a pEC50 of 4.73.

In test [1], `CCOC(=O)c1[nH]c(Br)c(-c2ccc(OC)c(F)c2)c1Br` returned an EC50 of 14.1 µM and a pEC50 of 4.85.

Turning to `CCOC(=O)c1[nH]c(Br)c(-c2ccccc2)c1Br`, in test [1], the EC50 was more than 75 µM and the pEC50 was 3.82. Besides, the IC50 in test [2] worked out at 10.3 µM.

For the compound `CCOC(=O)c1[nH]c(Br)c(-c2ccc(OC(F)(F)F)cc2)c1Br`, in test [1], the EC50 was found to be 27.1 µM and the pEC50 is 4.57.

For the compound `CCOC(=O)c1[nH]c(Br)c(-c2cc(OC)c(OC)c(OC)c2)c1Br`, in test [1], the EC50 is more than 75 µM and the pEC50 was found to be 3.82. This compound also returned an IC50 in test [2] of 12.9 µM.

With `CCOC(=O)c1[nH]c(Br)c(-c2ccc3c(c2)OCO3)c1Br`, in test [1], a half-maximal effect (EC50) was put at 29.7 µM and the pEC50 amounted to 4.53.

In test [1], `CCOC(=O)c1[nH]c(Br)c(-c2ccc(Br)cc2)c1Br` displayed an EC50 of 94 µM and a pEC50 of 4.03. This compound registered an inhibition in test [3] of 40%.

In test [1], `CCOC(=O)c1[nH]c(Br)c(-c2cccc3ccccc23)c1Br` registered an EC50 of 7 µM and a pEC50 of 5.15. Also, the IC50 in test [2] is 3.24 µM.

Take `CCOC(=O)c1[nH]c(Br)c(-c2c[nH]c3ccccc23)c1Br`: in test [1], it took 17.8 µM to reach a half-maximal effect (EC50) and the pEC50 was 4.75. The midpoint of inhibition in test [2], the IC50, lay at 1.98 µM.

Broadly, the EC50 is the concentration needed to bring the measured effect to its halfway point. Low readings indicate an effect from little substance, high ones a need for much substance. The term pEC50 denotes the negative decadic logarithm of the EC50, by convention in mol/L. A low value points to a large EC50. What is called IC50 is the concentration needed to halve the response being measured. One may read the inhibition as how much of the control response was suppressed. A lower inhibition goes with a weak effect.
